Here are results for one molecule from patent US20240101538A1, “PROTEIN-PROTEIN INTERACTION MODULATORS OF AURORA KINASE A AND THEIR USE IN THE PREVENTION AND/OR TREATMENT OF CANCER” (EBERHARD KARLS UNIVERSITÄT TÜBINGEN, priority 2020, published 2024).

The assay relates to NMP53^−/− cells. Description: Immunofluorescence staining (α-tubulin, DAPI) of normal and abnormal spindles. It counts as cell-based, murine. Particulars: different treatment times. As for the experimental part:
The AURKA compounds of this invention trigger the formation of abnormal (multipolar and monopolar) spindles a few minutes after application. A. Representative images of immunofluorescence stainings with antibodies against α-tubulin (light grey) and DAPI (surrounded by a dashed white line) of a tumor cell line (NMP53^−/− cells) treated for 24 hours with compound 3a [N-(2-fluoro-5-((4-(1-methyl-1H-pyrazole-4-yl)benzyl)amino)phenyl)-3-(furan-2-yl)-propanamide] or DMSO as a control. B. Quantification of normal and abnormal spindles of immunofluorescence staining with antibodies against α-tubulin and DAPI of a tumor cell line (NMP53^−/− cells) after different treatment times with compound 3a according to this invention or DMSO as a control.
The AURKA compounds of this invention trigger the formation of abnormal (e.g. multipolar and/or monopolar) spindles in tumor cell lines (NMP53^−/− cells) (FIG. 8).

Molecules are shown by their SMILES.

Consider `Cn1cc(-c2ccc(CNc3ccc(F)c(NC(=O)CCc4ccco4)c3)cc2)cn1` [Compound 3a, N-(2-fluoro-5-((4-(1-methyl-1H-pyrazole-4-yl)benzyl)amino)phenyl)-3-(furan-2-yl)propanamide], for which the “formation of abnormal spindles” value is reported as “induce the formation of abnormal spindles within a few minutes”.
